Source: PubChem BioAssay (NCI)
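Five compound concentrations were applied to cells in 96-well plates for 48 hours; endpoints were derived by simple linear interpolation of the resulting dose-response curve. Here, GI50 denotes the concentration required for 50% inhibition of growth. TGI marks complete inhibition of growth.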

Experiments:
Assay in all cases: growth of human tumour cells (NCI), 48 h
[1] = system: IGROV1 ovarian
[2] = system: OVCAR-8 ovarian
[3] = system: COLO 205 colon
[4] = system: M14 melanoma
[5] = system: RPMI-8226 leukemia
[6] = system: K-562 leukemia
[7] = system: NCI-H460 lung
[8] = system: MDA-MB-231 breast
[9] = system: HCC-2998 colon
[10] = system: UO-31 renal
[11] = system: SF-295 CNS
[12] = system: HT29 colon
[13] = system: SF-268 CNS
[14] = system: RXF 393 renal
[15] = system: SK-MEL-2 melanoma
[16] = system: LOX IMVI melanoma
[17] = system: OVCAR-3 ovarian
[18] = system: MOLT-4 leukemia
[19] = system: A549 NSCLC
[20] = system: HS 578T breast
[21] = system: DU-145 prostate
[22] = system: HOP-62 NSCLC
[23] = system: PC-3 prostate
[24] = system: SK-MEL-28 melanoma
[25] = system: NCI/ADR-RES ovarian
[26] = system: SK-OV-3 ovarian
[27] = system: HCT-15 colon
[28] = system: CCRF-CEM leukemia
[29] = system: U251 CNS
[30] = system: TK-10 renal
[31] = system: NCI-H522 lung
[32] = system: UACC-257 melanoma
[33] = system: SF-539 CNS
[34] = system: ACHN renal
[35] = system: KM12 colon
[36] = system: CAKI-1 renal
[37] = system: HL-60(TB) leukemia
[38] = system: SNB-75 CNS
[39] = system: MCF7 breast
[40] = system: SN12C renal
[41] = system: SW-620 colon
[42] = system: HOP-92 NSCLC
[43] = system: OVCAR-4 ovarian
[44] = system: NCI-H226 lung
[45] = system: 786-0 renal
[46] = system: NCI-H23 lung
[47] = system: MDA-MB-435
[48] = system: OVCAR-5 ovarian
[49] = system: HCT-116 colon
[50] = system: SR leukemia
[51] = system: MALME-3M melanoma
[52] = system: T-47D breast
[53] = system: A498 renal
[54] = system: BT-549 breast
[55] = system: SNB-19 CNS
[56] = system: UACC-62 melanoma
[57] = system: EKVX NSCLC

What does the source list for `O=C(c1ccccc1)N(C(=S)NCCc1ccc(Cl)cc1)c1ccc(Cl)cc1`?
GI50 [1]: 3.88 µM; TGI [1]: 16.2 µM; GI50 [2]: 19.1 µM; TGI [2]: 35.3 µM; GI50 [3]: 6.83 µM; TGI [3]: 23.1 µM; GI50 [4]: 8.42 µM; TGI [4]: 25 µM; GI50 [5]: 2.08 µM; TGI [5]: 5.66 µM; GI50 [6]: 74.6 µM; TGI [6]: > 100 µM; GI50 [7]: 19.4 µM; TGI [7]: 42.4 µM; GI50 [8]: 6.95 µM; TGI [8]: 20.4 µM; GI50 [9]: 8.54 µM; TGI [9]: 22.6 µM; GI50 [10]: 2.61 µM; TGI [10]: 8.85 µM; GI50 [11]: 14.6 µM; TGI [11]: 31.9 µM; GI50 [12]: 5.3 µM; TGI [12]: 58.4 µM; GI50 [13]: 5.67 µM; TGI [13]: 18.4 µM; GI50 [14]: 12.8 µM; TGI [14]: 28.6 µM; GI50 [15]: 20.2 µM; TGI [15]: 36.4 µM; GI50 [16]: 2.4 µM; TGI [16]: 5.3 µM; GI50 [17]: 3.75 µM; TGI [17]: 13.3 µM; GI50 [18]: 3.14 µM; TGI [18]: > 100 µM; GI50 [19]: 19.4 µM; TGI [19]: 49.9 µM; GI50 [20]: 13.8 µM; TGI [20]: > 100 µM; GI50 [21]: 5.22 µM; TGI [21]: 16.7 µM; GI50 [22]: 20.2 µM; TGI [22]: 37.9 µM; GI50 [23]: 6.94 µM; TGI [23]: 26.2 µM; GI50 [24]: 12.7 µM; TGI [24]: 27 µM; GI50 [25]: 16.2 µM; TGI [25]: 30.9 µM; GI50 [26]: 18.3 µM; TGI [26]: 32.8 µM; GI50 [27]: 3.57 µM; TGI [27]: 14.4 µM; GI50 [28]: 2.59 µM; TGI [28]: 10.7 µM; GI50 [29]: 4.38 µM; TGI [29]: 14.9 µM; GI50 [30]: 5.67 µM; TGI [30]: 19.7 µM; GI50 [31]: 8.3 µM; TGI [31]: 22.9 µM; GI50 [32]: 18.2 µM; TGI [32]: 34.6 µM; GI50 [33]: 5.93 µM; TGI [33]: 19.1 µM; GI50 [34]: 5.68 µM; TGI [34]: 17.4 µM; GI50 [35]: 4.24 µM; TGI [35]: 15.3 µM; GI50 [36]: 5.48 µM; TGI [36]: 20.9 µM; GI50 [37]: 6.77 µM; TGI [37]: > 100 µM; GI50 [38]: 13.5 µM; TGI [38]: 27.9 µM; GI50 [39]: 3.58 µM; TGI [39]: 19.4 µM; GI50 [40]: 7.45 µM; TGI [40]: 20.7 µM; GI50 [41]: 4.49 µM; TGI [41]: 16.7 µM; GI50 [42]: 7.3 µM; TGI [42]: 21 µM; GI50 [43]: 13.7 µM; TGI [43]: 29.3 µM; GI50 [44]: 16.7 µM; TGI [44]: 39.4 µM; GI50 [45]: 14.7 µM; TGI [45]: 28.6 µM; GI50 [46]: 13 µM; TGI [46]: 31.4 µM; GI50 [47]: 4.67 µM; TGI [47]: 20.4 µM; GI50 [48]: 19.6 µM; TGI [48]: 36.4 µM; GI50 [49]: 7.11 µM; TGI [49]: 23.7 µM; GI50 [50]: 5.54 µM; TGI [50]: > 100 µM; GI50 [51]: 11.8 µM; TGI [51]: 28.6 µM; GI50 [52]: 6.24 µM; TGI [52]: 25.3 µM; GI50 [53]: 16.3 µM; TGI [53]: 30.7 µM; GI50 [54]: 11.8 µM; TGI [54]: 25.8 µM; GI50 [55]: 15.9 µM; TGI [55]: 30.1 µM; GI50 [56]: 11.4 µM; TGI [56]: 23.8 µM; GI50 [57]: 17.4 µM; TGI [57]: 38.8 µM
